Values quoted from earlier work, collected in US20100016582A1 (Wyeth, priority 2008, published 2010).

How the values were obtained:
[1] = contact with a solvent or solvent mixture (e.g., ethyl acetate and ethanol)
[2] = drug formulations; acetic acid
[3] = system: ovariectomized rat model of osteopenia
[4] = system: MCF-7 cell line (human breast cancer cell line)
uterine response = details: preclinical models of uterine stimulation

conversion of Form A to Form B [1]	SMILES	bioavailability [2]	prevention of bone loss [3]	reduction of cholesterol [3]	estrogen antagonist behaviour [4]	stimulation of uterine response (uterine response)
can easily convert to Form B	Cc1c(-c2ccc(O)cc2)n(Cc2ccc(OCCN3CCCCCC3)cc2)c2ccc(O)cc12 [Form A, 1-[4-(2-azepan-1-yl-ethoxy)-benzyl]-2-(4-hydroxy-phenyl)-3-methyl-1H-indol-5-ol acetic acid]	better bioavailability in some drug formulations	–	–	–	–
–	Cc1c(-c2ccc(O)cc2)n(Cc2ccc(OCCN3CCCCCC3)cc2)c2ccc(O)cc12 [bazedoxifene acetate, 1-[4-(2-azepan-1-yl-ethoxy)-benzyl]-2-(4-hydroxy-phenyl)-3-methyl-1H-indol-5-ol acetic acid]	–	estrogen agonist-like effect in preventing bone loss	reducing cholesterol	behaves as an estrogen antagonist	little or no stimulation of uterine response
